Assay results from PubChem BioAssay AID493250 (Broad Institute, 2011).
The source made the active and inactive calls.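 The calls were made as follows: active = signal decrease with fitted half-maximal dose at or below ten times the highest valid tested dose; inconclusive = poor fit, or flat fit at 30 to 70% inhibition; inactive = the rest.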

Biological target: Zinc finger protein mex-5 (Caenorhabditis elegans) (UniProt Q9XUB2)
Experiment: inhibitors of MEX-5 RNA binding, dose response, biochemical, fluorescence polarization, C. elegans, cherry-picked, round 3 (AID 493250)
Details: purified MEX-5-MBP, FITC-TCR2 RNA fluorescence polarization

Sequence of Zinc finger protein mex-5 (Caenorhabditis elegans) (Q9XUB2 whole entry, looked up): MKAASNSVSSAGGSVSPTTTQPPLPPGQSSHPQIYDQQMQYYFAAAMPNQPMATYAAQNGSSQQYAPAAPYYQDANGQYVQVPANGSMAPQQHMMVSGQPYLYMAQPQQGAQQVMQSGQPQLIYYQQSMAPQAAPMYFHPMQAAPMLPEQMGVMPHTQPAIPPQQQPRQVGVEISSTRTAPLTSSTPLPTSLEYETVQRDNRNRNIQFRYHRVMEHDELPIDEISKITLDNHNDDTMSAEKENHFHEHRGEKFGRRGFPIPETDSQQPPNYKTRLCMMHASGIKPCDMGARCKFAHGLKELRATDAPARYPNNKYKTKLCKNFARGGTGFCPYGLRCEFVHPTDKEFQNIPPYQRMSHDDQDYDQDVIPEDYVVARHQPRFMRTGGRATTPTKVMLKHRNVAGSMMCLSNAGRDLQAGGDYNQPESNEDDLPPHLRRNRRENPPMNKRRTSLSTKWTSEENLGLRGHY

Compound	AC50
Cc1cc2c(C)nc(N/N=C/c3ccc([N+](=O)[O-])cc3)nc2o1	6.83 µM
Cc1cccc2c(N=Nc3ccccc3)c(O)[nH]c12	> 10 µM (inactive)
Cc1cccc(N2C(=O)NC(=O)/C(=C/c3cc4c(cc3[N+](=O)[O-])OCO4)C2=O)c1	9.86 µM
COC(=O)C1=COC(C)C2CN3CCc4c([nH]c5ccccc45)C3CC12 (stereo not given)	4.21 µM
COc1ccc(Cl)cc1CN1CCN(c2nc(C)cc(C)c2C#N)CC1	9.41 µM
CNC(=O)c1cc2ccc(OC)cc2oc1=O	> 10 µM (inactive)
COc1ccc(/C(O)=C/c2nc3ccccc3n(-c3ccccc3)c2=O)cc1	3.25 µM
Nc1nc(Cl)nc2ccc(Br)cc12	> 10 µM (inactive)
CCOc1cc(/C=C2\CCCc3c2nc2ccccc2c3C(=O)O)ccc1OC	0.906 µM
Cn1c(O)c(N=Nc2ccc(F)cc2)c2ccccc21	1.75 µM
CCOC(=O)C1C(=O)C=C(/C=C/c2ccc(N(C)C)cc2)CC1c1ccccc1 (stereo not given)	7.41 µM
N=C1CCC(=N)c2c1c(O)c1ccccc1c2O	6.52 µM

Same assay, conditions: purified MEX-5-MBP, FITC-TCR2 RNA fluorescence polarization; at 10 µM (top of the series)

Compound	activity change, negative = inhibition
O=C1/C(=C\c2ccc(Br)o2)Cc2ccccc21	inactive
COCCNC(=S)NNC(=O)c1cccs1	inactive
CCCCn1c(N)c(N(Cc2ccccc2OC)C(=O)C(C)C)c(=O)[nH]c1=O	inactive
Cc1cc(=O)n2[nH]c(N)c(N=Nc3ccccc3F)c2n1	inactive
CC1CN(Cc2c(O)ccc3c2oc(=O)c2ccccc23)CC(C)O1 (stereo not given)	inactive
Cc1cccn2c(=O)c3cc(S(=O)(=O)c4ccc(Br)cc4)c(=N)n(C4CCCCC4)c3nc12	inactive
O=C(O)c1ccc(N2Cc3ccccc3C2)cc1O	inactive
NS(=O)(=O)c1ccc(N=Nc2ccc(=O)[nH]c2O)cc1	inactive
COC(=O)c1ccccc1N=Nc1c(N)n[nH]c1N	inactive
COc1ccc(OC)c(Nc2nc(-c3ccc(O)c(O)c3)cs2)c1	inactive
COc1ccc(OC)c(-n2c(-c3cc(-c4ccco4)[nH]n3)n[nH]c2=S)c1	inactive
Cc1nn(C(C)C(=O)NNC(=S)Nc2ccc(Cl)cc2)c(C)c1[N+](=O)[O-] (stereo not given)	inactive
COc1ccc(/C=N/NC(=O)c2ccc(=O)[nH]n2)cc1OC	inactive
CN1CCCc2cc(C=O)ccc21	inactive
COc1ccc(C(CC(=O)N2CCCC2)c2c(OC)cc(OC)c3ccc(=O)oc23)cc1 (stereo not given)	inactive
Cc1c(NC(=O)c2ccc(=O)oc2)c(=O)n(-c2ccccc2)n1C	inactive
Cc1ccc(C(=O)/C=C/c2ccccc2[N+](=O)[O-])cc1	inactive
COc1ccc(CCn2c(=N)c(C(=O)NCC3CCCO3)cc3c(=O)n4cccc(C)c4nc32)cc1 (stereo not given)	inactive
CCN=c1scc(-c2ccco2)n1/N=C/c1ccc(O)cc1	inactive
C#CCOCCOCCOCCNc1nc(N2CCN(C(=O)[C@H](CCCCN)n3cc(C(N)CO)nn3)CC2)nc(N2CCN(C(=O)[C@H](CCC(=O)O)n3cc(C(N)CC(C)C)nn3)CC2)n1 (stereo not given in full)	inactive
COc1ccc2c(c1)NC(c1ccc(N(C)C)cc1)c1cccn1-2 (stereo not given)	inactive

Compound	activity change, negative = inhibition
CCOc1ccccc1C1NC(=O)NC(C)=C1C(=O)OCc1ccccc1 (stereo not given)	inactive
Cc1ccc2c(c1)c(C1=NC(=S)NC1=O)c(O)n2C	inactive
Cc1cc(C(=O)N/N=C/c2ccc(-c3ccc(C)c(Cl)c3)o2)n[nH]1	inactive
O=c1[nH]cnc2c1C(c1ccccc1)c1c(nc[nH]c1=O)O2	inactive
CCOC(=O)c1cnc2c(N=Nc3ccccc3)c(N)nn2c1N	inactive
CCN(CC)c1ccc(N=Cc2c(O)n(-c3ccccc3C)c(=O)[nH]c2=O)cc1	inactive
CCC(=O)NCCc1nc2ccccc2n1Cc1ccccc1	inactive
COc1ccccc1N1C(=O)S/C(=C\c2cccs2)C1=O	inactive
O=c1[nH]c2ccccc2n1Cc1ccc(Cl)cc1	inactive
C[C@H](O)CC1=C[C@H](O)[C@@H](C)OC1=O	inactive
Cc1ccc(C)c(NC(=O)CCC(=O)NNC(=S)Nc2ccccc2)c1	inactive
CCc1nc2ccccc2c(=O)n1/N=C/c1ccc(OC)cc1	inactive
Cc1ccc2cc(C#N)c(N3CCCN(C(=O)C4CCCO4)CC3)nc2c1C (stereo not given)	inactive
COCc1cc(C)nc(N/N=C/c2ccc(-c3cc(C(=O)O)ccc3Cl)o2)c1C#N	inactive
CC(=O)N1C(=O)/C(=C2\SC(=S)N(NC(=O)c3ccc(O)cc3)C2=O)c2ccccc21	inactive
COc1ccc(CC(=O)NNc2ncnc3c2cnn3C)cc1OC	inactive
O=C(O)c1ccc2cccnc2n1	inactive
O=S(=O)(O)c1nc2ccccc2n1Cc1ccc(Cl)cc1Cl	inactive
CCCCN(C(=O)c1ccc([N+](=O)[O-])o1)c1c(N)n(CCCC)c(=O)[nH]c1=O	inactive
CN=c1scc(-c2ccco2)n1/N=C/c1ccc(O)c(O)c1	inactive
Nc1nonc1C(=O)N/N=C/c1cc(Br)ccc1O	inactive

Compound	activity change, negative = inhibition
C=CCn1c(O)c(N=NC(=S)Nc2cccc(C)c2)c2ccccc21	inactive
CCOc1ccc(N2C(=O)C(Cl)=C(Nc3ccccc3O)C2=O)cc1	inactive
COc1nc(N/N=C/c2ccc(-c3ccccc3[N+](=O)[O-])o2)nc(N2CCOCC2)n1	inactive
Nc1nc(N)c2[nH]cnc2n1	inactive
Cc1cccnc1Nc1nc(-c2ccc(O)cc2O)cs1	inactive
Cc1ccc(O)c(-c2cc(C(=O)Nc3ccc(S(=O)(=O)Nc4nc(C)cc(C)n4)cc3)[nH]n2)c1	inactive
CN(N)N=Nc1nc2c([nH]1)c(=O)n(C)c(=O)n2C	inactive
O=C1N=c2ccccc2=C1c1sc(=S)n(NC(=O)c2ccccc2)c1O	inactive
Nc1ccccc1C(=O)NNC(=O)C(=O)/C=C(\O)c1ccccc1	inactive
O=C(N/N=C/c1ccncc1)c1cc([N+](=O)[O-])cc([N+](=O)[O-])c1O	inactive
COc1ccc(CC(=O)NNc2ncnc3c2cnn3C)cc1	inactive
COC(=O)C1=C(C)OC(N)=C(C#N)C1c1cc(OC)c(OCC(N)=O)cc1Cl (stereo not given)	inactive
Cc1cc([N+](=O)[O-])nn1CC(=O)NNC(=S)Nc1ccc(F)cc1	inactive
Cc1ccc(S(=O)(=O)c2cc3c(=O)n4cccc(C)c4nc3n(C3CCCCC3)c2=N)cc1	inactive
Oc1ccc(C2C=C(c3ccc(F)cc3)Nc3ncnn32)cc1 (stereo not given)	inactive
Cc1cc(C)c2ccc(=S)[nH]c2n1	inactive
NC(=S)N=Nc1c(O)[nH]c2ccccc12	inactive
CCOc1cc(/C=N/Nc2nc(=O)[nH]nc2C)ccc1O	inactive
COC(=O)COc1ccc2c(c1)O/C(=C\c1cccc([N+](=O)[O-])c1)C2=O	inactive
CC(C)CNC(=O)c1ccccc1Oc1ccccc1	inactive
O=C(O)c1ccc(NC2=C(Cl)C(=O)c3ccccc3C2=O)cc1	inactive

Compound	activity change, negative = inhibition
O=c1[nH]cnc2c1C(c1ccc(Cl)cc1)c1c(nc[nH]c1=O)O2	inactive
CC(=O)Nc1ccc(N=NC2C(=O)N(C(N)=S)N=C2C)cc1 (stereo not given)	inactive
CN1CCc2c(sc(NC(=O)C3CCCN3S(=O)(=O)c3ccc(Cl)s3)c2C(N)=O)C1 (stereo not given)	inactive
COc1ccc(C(=O)NNC(=O)c2ccc3ccccc3c2O)cc1	inactive
COc1ccc(-n2c(C)nc3cc(C(=O)O)ccc32)cc1	inactive
COc1c(O)ccc(/C=C(\C#N)c2nc3ccccc3[nH]2)c1[N+](=O)[O-]	inactive
COc1cc2c(cc1O)CC1c3c(cc(O)c(OC)c3-2)CCN1C (stereo not given)	inactive
CCN(CC(=O)Nc1ccc(NC(C)=O)cc1)Cc1c(O)ccc2cc(Br)ccc12	inactive
COc1cc2c3c(c1OC)-c1cc(O)ccc1CC3NCC2 (stereo not given)	inactive
COc1cc(/C=N/NC(=O)c2ccc(=O)[nH]n2)ccc1O	inactive
COC(=O)C1CSc2[nH]c(=O)sc2C1c1ccc(O)c(OC)c1 (stereo not given)	inactive
Cc1ccc2c(c1)-c1ccccc1S(=O)(=O)N2	inactive
COc1ccccc1C(=O)NNC(=O)c1csc(N2CCOCC2)n1	inactive
Cc1nc2c3ccccc3nc(NNC(=O)CCC(=O)N3CCC(C)CC3)n2n1	inactive
COc1ccccc1NCc1cc(=O)oc2c(C)c(O)ccc12	inactive
CCOc1nc(-c2ccccc2)c2cc(Br)ccc2n1	inactive
CCOc1ccc2nc(N=Nc3c(O)[nH]c(=O)[nH]c3=O)sc2c1	inactive
O=c1nc(-c2ccccc2)c2cc(Br)ccc2[nH]1	inactive
CC1=Nc2ccc(C)cc2/C1=C/c1c(N)n2c(S(=O)(=O)C(C)C)nsc2nc1=O	inactive
CCC(COC(C)=O)Nc1nc2c([nH]1)c(=O)n(C)c(=O)n2C (stereo not given)	inactive
